Values joined by “and” are separate entries in the source; they are usually repeats but may differ in a detail not shown here. Equal entries are not always repeated.
Key:
[1] = system: MV/FrankfurtMain.DEU/17.11 (genotype D8); test: Rectal temperature of MeV-infected squirrel monkeys; type: in vivo, squirrel monkeys (Saimiri sciureus); conditions: for Temperature: individual animals
Experimental: All animal experiments were carried out in compliance with the regulations of German animal protection laws and authorized by the Regierungspräsidium Darmstadt, Germany (Dezernat V54 – Veterinärwesen und Verbraucherschutz, Hilpertstrasse 31, 64295 Darmstadt). Adult male and female squirrel monkeys (Saimiri sciureus) were obtained from BioPRIM, 31450 Baziege, or CNRS 0846 Primatologie, 13790 Rousset, France. Each experimental group was housed in a separate room, and animals of the same sex were caged together within the respective groups. For the single-dose pharmacokinetic experiment, animals were anesthetized, and the drug was given through a stomach tube at a concentration of 50 mg/kg bodyweight. Blood samples were collected after 15, 30, and 60 min, and 2, 3, 6, and 24 h. For efficacy assessment, groups of 6 animals were left untreated or treated with 50 mg/kg of ERDRP-0519 twice daily for two weeks, starting either 12 h before or 3 or 7 days after intranasal infection with 10^6 TCID50 of MV/FrankfurtMain.DEU/17.11. Clinical signs, rectal temperature, and weight were recorded daily, and throat swabs and blood samples were collected before infection and twice weekly thereafter. On day 21 post-infection, the animals were euthanized, necropsied, and samples were collected for histological analysis.

[2] = system: MV/FrankfurtMain.DEU/17.11 (genotype D8); test: Neutralizing antibody titers in serum; type: in vivo, squirrel monkeys (Saimiri sciureus); conditions: lower limit of detection = 10
Experimental: White blood cell counts, viral load quantification in PBMCs, and quantification of neutralizing antibody titers were performed as follows: for white blood cell counts, blood was diluted 1:100 in 3% acetic acid and cells were counted using a Neubauer chamber. For viral load quantification in PBMCs, blood was centrifuged at 3000 rpm for 15 min and serum was frozen at −20 °C until further use. Red blood cell lysis was performed and the remaining PBMCs were counted using a Neubauer chamber. Viral titers in PBMCs were quantified in quadruplicates using limited dilution method and calculated as TCID50/10^6 PBMCs. Neutralizing antibody titers were quantified by incubating MeV with 2-fold serial dilutions of the respective serum for 20 min at room temperature in quadruplicates. Vero/hSLAM cells were added and incubated for 3 days at 37 °C. Neutralizing antibody titers are expressed as the reciprocal of the highest serum dilution showing no signs of infection. For virus titration from throat swabs, swabs were placed in 150 μl DMEM with 3% penicillin/streptomycin and the titer was quantified by limited dilution method.

Cn1nc(C(F)(F)F)cc1C(=O)Nc1ccc(S(=O)(=O)N2CCCC[C@H]2CCN2CCOCC2)cc1 [ERDRP-0519]
Temperature, Mean Diff, untreated vs. prophylactic ([1]; Row 1 (day 0)): -1.35
Temperature, Mean Diff, untreated vs. therapeutic (d3) ([1]; Row 1 (day 0)): -0.9667
Temperature, Mean Diff, untreated vs. therapeutic (d7) ([1]; Row 1 (day 0)): -0.7167
Temperature, Mean Diff, untreated vs. prophylactic ([1]; Row 2 (day 3)): 0.5833
Temperature, Mean Diff, untreated vs. therapeutic (d3) ([1]; Row 2 (day 3)): -0.05
Temperature, Mean Diff, untreated vs. therapeutic (d7) ([1]; Row 2 (day 3)): -0.03333
Temperature, Mean Diff, untreated vs. prophylactic ([1]; Row 3 (day 7)): 1.2
Temperature, Mean Diff, untreated vs. therapeutic (d3) ([1]; Row 3 (day 7)): 0.5167
Temperature, Mean Diff, untreated vs. therapeutic (d7) ([1]; Row 3 (day 7)): 0.4333
Temperature, Mean Diff, untreated vs. prophylactic ([1]; Row 4 (day 10)): 0.5333
Temperature, Mean Diff, untreated vs. therapeutic (d3) ([1]; Row 4 (day 10)): 0.3667
Temperature, Mean Diff, untreated vs. therapeutic (d7) ([1]; Row 4 (day 10)): 0.5
Temperature, Mean Diff, untreated vs. prophylactic ([1]; Row 5 (day 14)): -0.25
Temperature, Mean Diff, untreated vs. therapeutic (d3) ([1]; Row 5 (day 14)): 0.4
Temperature, Mean Diff, untreated vs. therapeutic (d7) ([1]; Row 5 (day 14)): 0.3
Temperature, Mean Diff, untreated vs. prophylactic ([1]; Row 6 (day 17)): 0.1667
Temperature, Mean Diff, untreated vs. therapeutic (d3) ([1]; Row 6 (day 17)): 0.24
Temperature, Mean Diff, untreated vs. therapeutic (d7) ([1]; Row 6 (day 17)): 0.2333
Temperature, Mean Diff, untreated vs. prophylactic ([1]; Row 7 (day 21)): -0.3167
Temperature, Mean Diff, untreated vs. therapeutic (d3) ([1]; Row 7 (day 21)): -0.1
Temperature, Mean Diff, untreated vs. therapeutic (d7) ([1]; Row 7 (day 21)): -0.1167
Temperature ([1]; prophylactic group, day 0): 38.9 °C and 38.6 °C and 38.7 °C (2×) and 39.3 °C and 38.2 °C
Temperature ([1]; prophylactic group, day 3): 38.6 °C and 38.5 °C and 39.1 °C and 39 °C and 37.5 °C and 38.8 °C
Temperature ([1]; prophylactic group, day 7): 39.3 °C (2×) and 38.5 °C and 38.7 °C and 38.8 °C and 37.3 °C
Temperature ([1]; prophylactic group, day 10): 39.8 °C and 39.3 °C (2×) and 38.9 °C and 38.3 °C and 39.7 °C
Temperature ([1]; prophylactic group, day 14): 40.1 °C and 40.5 °C (2×) and 39.6 °C (2×) and 39.1 °C
Temperature ([1]; prophylactic group, day 17): 39.7 °C (2×) and 39.8 °C and 39.3 °C and 38.7 °C and 40 °C
Temperature ([1]; prophylactic group, day 21): 39.5 °C (2×) and 39.7 °C (2×) and 39.1 °C and 39.6 °C
Temperature, group mean (Mean 2) ([1]; prophylactic, Row 1 (day 0)): 38.73
Temperature, group mean (Mean 2) ([1]; prophylactic, Row 2 (day 3)): 38.58
Temperature, group mean (Mean 2) ([1]; prophylactic, Row 3 (day 7)): 38.65
Temperature, group mean (Mean 2) ([1]; prophylactic, Row 4 (day 10)): 39.22
Temperature, group mean (Mean 2) ([1]; prophylactic, Row 5 (day 14)): 39.9
Temperature, group mean (Mean 2) ([1]; prophylactic, Row 6 (day 17)): 39.53
Temperature, group mean (Mean 2) ([1]; prophylactic, Row 7 (day 21)): 39.52
mean temperatures in the distinct groups ([1]; remained within the pre-infection range, all groups): less than 40 °C
Temperature ([1]; therapeutic (d3) group, day 0): 37.9 °C and 38.1 °C and 37.8 °C and 39.1 °C and 38.4 °C and 38.8 °C
Temperature ([1]; therapeutic (d3) group, day 3): 39.3 °C and 38.3 °C and 39.2 °C and 40 °C and 39.4 °C and 39.1 °C
Temperature ([1]; therapeutic (d3) group, day 7): 38.9 °C and 38.7 °C and 39.4 °C (2×) and 39.8 °C (2×)
Temperature ([1]; therapeutic (d3) group, day 10): 38.4 °C and 39 °C and 39.3 °C and 39.6 °C and 39.7 °C and 40.3 °C
Temperature ([1]; therapeutic (d3) group, day 14): 39.1 °C (2×) and 38.7 °C and 39.5 °C (2×) and 39.6 °C
Temperature ([1]; therapeutic (d3) group, day 17): 39.1 °C and 39.5 °C (2×) and 39.8 °C and 39.4 °C
Temperature ([1]; therapeutic (d3) group, day 21): 39.1 °C and 38.8 °C (2×) and 39.8 °C and 40 °C
Temperature, group mean (Mean 2) ([1]; therapeutic (d3), Row 1 (day 0)): 38.35
Temperature, group mean (Mean 2) ([1]; therapeutic (d3), Row 2 (day 3)): 39.22
Temperature, group mean (Mean 2) ([1]; therapeutic (d3), Row 3 (day 7)): 39.33
Temperature, group mean (Mean 2) ([1]; therapeutic (d3), Row 4 (day 10)): 39.38
Temperature, group mean (Mean 2) ([1]; therapeutic (d3), Row 5 (day 14)): 39.25
Temperature, group mean (Mean 2) ([1]; therapeutic (d3), Row 6 (day 17), N = 5): 39.46
Temperature, group mean (Mean 2) ([1]; therapeutic (d3), Row 7 (day 21), N = 5): 39.3
Temperature ([1]; therapeutic (d7) group, day 0): 38.4 °C and 38.3 °C and 38 °C and 37.9 °C (2×) and 38.1 °C
Temperature ([1]; therapeutic (d7) group, day 3): 39.3 °C (2×) and 39.4 °C (2×) and 38.6 °C and 39.2 °C
Temperature ([1]; therapeutic (d7) group, day 7): 40 °C (2×) and 39.2 °C (2×) and 38.7 °C and 39.4 °C
Temperature, group mean (Mean 2) ([1]; therapeutic (d7), Row 1 (day 0)): 38.1
Temperature, group mean (Mean 2) ([1]; therapeutic (d7), Row 2 (day 3)): 39.2
Temperature, group mean (Mean 2) ([1]; therapeutic (d7), Row 3 (day 7)): 39.42
Temperature, group mean (Mean 2) ([1]; therapeutic (d7), Row 4 (day 10)): 39.25
Temperature, group mean (Mean 2) ([1]; therapeutic (d7), Row 5 (day 14)): 39.35
Temperature, group mean (Mean 2) ([1]; therapeutic (d7), Row 6 (day 17)): 39.47
Temperature, group mean (Mean 2) ([1]; therapeutic (d7), Row 7 (day 21)): 39.32
neutralizing antibody titer, dilution factor [1/dilution] ([2]; prophylactic group, day 0, individual animals): 10 1/dilution
neutralizing antibody titer, dilution factor [1/dilution] ([2]; prophylactic group, day 3, individual animals): 10 1/dilution
neutralizing antibody titer, dilution factor [1/dilution] ([2]; prophylactic group, day 7, individual animals): 10 1/dilution
neutralizing antibody titer, dilution factor [1/dilution] ([2]; prophylactic group, day 10, individual animals): 10 1/dilution
neutralizing antibody titer, dilution factor [1/dilution] ([2]; prophylactic group, day 14, individual animals): 10 1/dilution (3×) and 80 1/dilution and 15 1/dilution and 30 1/dilution
neutralizing antibody titer, dilution factor [1/dilution] ([2]; prophylactic group, day 17, individual animals): 160 1/dilution and 240 1/dilution and 10 1/dilution (3×) and 17.5 1/dilution
neutralizing antibody titer, dilution factor [1/dilution] ([2]; prophylactic group, day 21, individual animals): 640 1/dilution and 200 1/dilution and 120 1/dilution and 10 1/dilution (2×) and 35 1/dilution
neutralizing antibody titer, dilution factor [1/dilution] ([2]; therapeutic (d3) group, day 0, individual animals): 10 1/dilution
neutralizing antibody titer, dilution factor [1/dilution] ([2]; therapeutic (d3) group, day 3, individual animals): 10 1/dilution
neutralizing antibody titer, dilution factor [1/dilution] ([2]; therapeutic (d3) group, day 7, individual animals): 10 1/dilution
neutralizing antibody titer, dilution factor [1/dilution] ([2]; therapeutic (d3) group, day 10, individual animals): 25 1/dilution and 10 1/dilution (2×) and 12.5 1/dilution
neutralizing antibody titer, dilution factor [1/dilution] ([2]; therapeutic (d3) group, day 14, individual animals): 800 1/dilution and 35 1/dilution and 10 1/dilution and 280 1/dilution and 400 1/dilution and 70 1/dilution
neutralizing antibody titer, dilution factor [1/dilution] ([2]; therapeutic (d3) group, day 17, individual animals): 200 1/dilution (2×) and 30 1/dilution and 240 1/dilution and 80 1/dilution
neutralizing antibody titer, dilution factor [1/dilution] ([2]; therapeutic (d3) group, day 21, individual animals): 320 1/dilution (2×) and 70 1/dilution and 140 1/dilution and 120 1/dilution
neutralizing antibody titer, dilution factor [1/dilution] ([2]; therapeutic (d7) group, day 0, individual animals): 10 1/dilution
neutralizing antibody titer, dilution factor [1/dilution] ([2]; therapeutic (d7) group, day 3, individual animals): 10 1/dilution (5×) and 12.5 1/dilution
neutralizing antibody titer, dilution factor [1/dilution] ([2]; therapeutic (d7) group, day 7, individual animals): 10 1/dilution (5×) and 15 1/dilution
neutralizing antibody titer, dilution factor [1/dilution] ([2]; therapeutic (d7) group, day 10, individual animals): 20 1/dilution and 12.5 1/dilution
